Data on seven molecules can be found in patent US6110888A, “Substituted phenols as fragrance, flavor and antimicrobial compounds” (Takasago International Corporation, priority 1999, dated 2000).

One test relates to Staphylococcus aureus. The experiment in a line: MIC, S. aureus (Table 1). The class given is cell-based. Conditions: read-out: Anti-Microbial Activity MIC, S. a. As to the method:
(§1) The anti-microbial activity of Examples 1-6 were evaluated.
(§2) Anti-Microbial Activity of Examples 1-6 (MIC in μg/mL)
(§3) Antimicrobial activity was evaluated to determine minimal inhibitory concentration ("MIC") and Minimal Bactericidal Concentration ("MBC"). The specific biological testing protocol is published R. Kang et al., "J. Agric. Food Chem.," vol. 40 pp. 2328-2330 (1994), the entirety of which is herein incorporated by reference.

Test [1] concerns Staphylococcus epidermidis. The experiment in a line: MIC, S. epidermidis (Table 1). The class given is cell-based. Conditions: read-out: Anti-Microbial Activity MIC, S. e. As to the method: as §1, §2, §3
The test system of a further test is Steptococcus mutans. Put plainly: MIC, S. mutans (Table 1). The class given is cell-based. The following applies: Streptococcus mutans, read-out: Anti-Microbial Activity MIC, S. m. As to the method:
as §1, §2, §3

A further test deals with Propionibacterium acnes. Put plainly: MIC, P. acnes (Table 1). The class given is cell-based. The following applies: Cutibacterium acnes, read-out: Anti-Microbial Activity MIC, P. acnes. As to the method: as §1, §2, §3
For test [2], the system named is Corynebacterium minutissimum. The experiment in a line: MIC, C. minutissimum (Table 1). Conditions: read-out: Anti-Microbial Activity MIC, C. m. The class given is cell-based. As to the method: as §1, §2, §3
The next test has as its system Corynebacterium xerosis. Put plainly: MIC, C. xerosis (Table 1). The class given is cell-based. Conditions: read-out: Anti-Microbial Activity MIC, C. x. As to the method:
as §1, §2, §3

In a further test the test system is Actinomyces neaslundii. Put plainly: MIC, A. neaslundii (Table 1). The class given is cell-based. The following applies: read-out: Anti-Microbial Activity MIC, A. neasl. As to the method:
as §1, §2, §3

The subject of another test is Escherichia coli. Put plainly: MIC, E. coli (Table 2). The class given is cell-based. The following applies: read-out: Anti-Microbial Activity MIC, E. c. As to the method: as §2, §3
The subject of another test is Pseudomonas aeruginosa. Put plainly: MIC, P. aeruginosa (Table 2). The class given is cell-based. The following applies: read-out: Anti-Microbial Activity MIC, P. aerug. As to the method: as §2, §3
The next test deals with Candida albicans. The experiment in a line: MIC, C. albicans (Table 2). The class given is cell-based. The following applies: read-out: Anti-Microbial Activity MIC, C. a. As to the method:
as §2, §3

The test system of the next test is Aspergillus niger. The experiment in a line: MIC, A. niger (Table 2). The class given is cell-based. Conditions: read-out: Anti-Microbial Activity MIC, A. niger. As to the method: as §2, §3
A further test concerns oral bacteria. Conditions: N. Didry et al. 1994; cited from earlier work.
Test [3] concerns bacteria involved in upper respiratory tract infections. Conditions: N. Didry et al. 1993; cited from earlier work.
The mark [4] stands for this setting: S. epidermidis strain 1228, gram+.
The mark [5] stands for this setting: C. minutissimum strain 23348, gram+.
The mark [6] stands for this setting: A. neaslundii strain 19039, gram+.
Where [7] appears, read: P. aeruginosa strain 15442, gram -.
The mark [8] stands for this setting: C. albicans strain 10231, fungi.

Converted amounts (≈) assume the structure as drawn. Read-outs that look alike come from different tables or passages of the source.

Usually MIC stands for the lowest concentration found to suppress growth.

For the molecule `C=CCc1c(C)ccc(C(C)C)c1O` [Example 1a, Ortho Allyl Thymol], the MIC in the test on Staphylococcus aureus (S. aureus strain 6535, gram+) was found to be 62.5 µg/mL (≈ 328 µM); in [1] (setting [4]), 62.5 µg/mL (≈ 328 µM); in the test with Steptococcus mutans (S. mutans strain 25175, gram+) it was 62.5 µg/mL (≈ 328 µM); in the test on Propionibacterium acnes (P. acnes strain 6919, gram+), 62.5 µg/mL (≈ 328 µM); in test [2] (setting [5]), 62.5 µg/mL (≈ 328 µM); with Corynebacterium xerosis (C. xerosis strain 373, gram+), 62.5 µg/mL (≈ 328 µM). For the same molecule, the MIC was 62.5 µg/mL (≈ 328 µM) with Actinomyces neaslundii (setting [6]); greater than 1000 µg/mL in the test with Escherichia coli (E. coli strain 11229, gram -); greater than 1000 µg/mL in the test with Pseudomonas aeruginosa (setting [7]); 125 µg/mL (≈ 657 µM) with Candida albicans (setting [8]); 125 µg/mL (≈ 657 µM) with Aspergillus niger (A. niger strain 16404, fungi).

`C=CCc1cc(C(C)(C)C)ccc1O` [Example 5, Ortho Allyl Para tert-Butyl Phenol]: the MIC in the test with Staphylococcus aureus (S. aureus strain 6535, gram+) is 31.2 µg/mL (≈ 164 µM); in test [1] (setting [4]), 31.2 µg/mL (≈ 164 µM); with Propionibacterium acnes (P. acnes strain 6919, gram+), 15.6 µg/mL (≈ 82 µM); in [2] (setting [5]) it was 31.2 µg/mL (≈ 164 µM); in the test with Corynebacterium xerosis (C. xerosis strain 373, gram+) it was 31.2 µg/mL (≈ 164 µM); in the test with Escherichia coli (E. coli strain 11229, gram -), greater than 500 µg/mL.

For `Cc1ccc(C(C)C)c(O)c1` [Thymol, thymol, reference compound], the MIC with Staphylococcus aureus (S. aureus strain 6535, gram+) was 250 µg/mL (≈ 1660 µM); in test [1] (setting [4]) it was 250 µg/mL (≈ 1660 µM); with Steptococcus mutans (S. mutans strain 25175, gram+) it was 250 µg/mL (≈ 1660 µM); with Propionibacterium acnes (P. acnes strain 6919, gram+), 125 µg/mL (≈ 832 µM); in test [2] (setting [5]) it was 125 µg/mL (≈ 832 µM); in the test on Corynebacterium xerosis (C. xerosis strain 373, gram+), 250 µg/mL (≈ 1660 µM). Also, the MIC is 125 µg/mL (≈ 832 µM) in the test with Actinomyces neaslundii (setting [6]); 250 µg/mL (≈ 1660 µM) in the test on Escherichia coli (E. coli strain 11229, gram -); greater than 1000 µg/mL with Pseudomonas aeruginosa (setting [7]); 250 µg/mL (≈ 1660 µM) with Candida albicans (setting [8]); 125 µg/mL (≈ 832 µM) in the test with Aspergillus niger (A. niger strain 16404, fungi). In addition, the “inhibitory activity on several microorganisms” value (“inhibitory activity” for short) with oral bacteria is on record as “showed an inhibitory activity on several microorganisms”. In addition, the “antimicrobial activity in several in vitro methods” value (“antimicrobial activity in several” below) in [3] is given as “broad spectrum activity”.

Turning to `O=CC=Cc1ccccc1` [cinnamaldehyde], the “inhibitory activity” value in the test on oral bacteria is reported as “showed an inhibitory activity on several microorganisms”. Moreover, the “antimicrobial activity in several” value in test [3] is given as “broad spectrum activity”.

For `CCCc1cc(C(C)(C)C)ccc1O` [Example 6, Ortho Propyl Para tert-Butyl Phenol], the MIC in the test with Staphylococcus aureus (S. aureus strain 6535, gram+) was 15.6 µg/mL (≈ 81.1 µM); in [1] (setting [4]), 15.6 µg/mL (≈ 81.1 µM); with Propionibacterium acnes (P. acnes strain 6919, gram+), 7.8 µg/mL (≈ 40.6 µM); in test [2] (setting [5]), 15.6 µg/mL (≈ 81.1 µM); with Corynebacterium xerosis (C. xerosis strain 373, gram+), 15.6 µg/mL (≈ 81.1 µM); in the test with Escherichia coli (E. coli strain 11229, gram -), greater than 500 µg/mL.

With `CCCc1cc(C)c(O)cc1C(C)C` [Example 4b, Para Propyl Carvacrol], the minimum inhibitory concentration (MIC) in the test on Staphylococcus aureus (S. aureus strain 6535, gram+) is no more than 15.6 µg/mL; in [1] (setting [4]), 31.2 µg/mL (≈ 163 µM); in the test with Steptococcus mutans (S. mutans strain 25175, gram+), no more than 15.6 µg/mL; with Propionibacterium acnes (P. acnes strain 6919, gram+) it was no more than 15.6 µg/mL; in [2] (setting [5]), no more than 15.6 µg/mL; with Corynebacterium xerosis (C. xerosis strain 373, gram+), no more than 15.6 µg/mL. The MIC in the test with Actinomyces neaslundii (setting [6]) was no more than 15.6 µg/mL; in the test with Escherichia coli (E. coli strain 11229, gram -), greater than 1000 µg/mL; in the test with Pseudomonas aeruginosa (setting [7]), greater than 1000 µg/mL; in the test with Candida albicans (setting [8]), 62.5 µg/mL (≈ 325 µM); with Aspergillus niger (A. niger strain 16404, fungi) it was 62.5 µg/mL (≈ 325 µM).

Consider `Cc1ccc(C(C)C)cc1O` [carvacrol, reference compound], for which the MIC (with Staphylococcus aureus; in [1]; in the test on Steptococcus mutans; in the test on Propionibacterium acnes; in [2]; with Corynebacterium xerosis) was 125 µg/mL (≈ 832 µM) throughout. For the same molecule, the MIC was 125 µg/mL (≈ 832 µM) with Actinomyces neaslundii; 500 µg/mL (≈ 3330 µM) in the test on Escherichia coli; greater than 1000 µg/mL with Pseudomonas aeruginosa; 250 µg/mL (≈ 1660 µM) with Candida albicans; 250 µg/mL (≈ 1660 µM) in the test on Aspergillus niger. Also, the “inhibitory activity” value in the test on oral bacteria is listed as “showed an inhibitory activity on several microorganisms”. Also, the “antimicrobial activity in several” value in test [3] is listed as “broad spectrum activity”.
